Measurements published in the NIST ThermoML archive (doi:10.1016/j.jct.2018.07.014).
Numbers after ± are expanded uncertainties.

Conditions: 298.2 K; 101.33 kPa; Liquid; buoyancy

Question: With `CCCOC(C)=O` [propyl ethanoate] as the compound, how does the mass density read?
Answer: Its mass density is 881.51 ± 2.9 kg/m3.

Question: For `CCCCC(C)=O` [2-hexanone], which mass density is on record?
Answer: Its mass density is 806.37 ± 2.8 kg/m3.

Question: Which mass density does the source give for `Cc1cc(C)cc(C)c1` [1,3,5-trimethylbenzene] here?
Answer: Its mass density is 859.7 ± 2.9 kg/m3.

Same assay, conditions: 323.2 K; 101.33 kPa; Liquid; buoyancy

Question: For `Cc1cccc(O)c1` [3-methylphenol], which mass density is on record?
Answer: The mass density was 1009.2 ± 3.1 kg/m3.

Question: For `Cc1ccc(O)cc1` [4-methylphenol], which mass density is on record?
Answer: The mass density was 1011.3 ± 3.2 kg/m3.

Question: For `Cc1ccccc1O` [2-methylphenol], which mass density is on record?
Answer: The mass density was 1018.8 ± 3.2 kg/m3.
